# Test results: patent US5877199A, “Heterocyclic compounds, their preparation and their therapeutic use” (priority 1994, dated 1999)
# Molecular target: T1, m1 muscarinic receptors (Homo sapiens, UniProt P11229)
# T1 construct: expressed in transfected cells; host or cells: CHO (Chinese Hamster Ovary) cells, membranes
# T1 sequence (P11229 1-460): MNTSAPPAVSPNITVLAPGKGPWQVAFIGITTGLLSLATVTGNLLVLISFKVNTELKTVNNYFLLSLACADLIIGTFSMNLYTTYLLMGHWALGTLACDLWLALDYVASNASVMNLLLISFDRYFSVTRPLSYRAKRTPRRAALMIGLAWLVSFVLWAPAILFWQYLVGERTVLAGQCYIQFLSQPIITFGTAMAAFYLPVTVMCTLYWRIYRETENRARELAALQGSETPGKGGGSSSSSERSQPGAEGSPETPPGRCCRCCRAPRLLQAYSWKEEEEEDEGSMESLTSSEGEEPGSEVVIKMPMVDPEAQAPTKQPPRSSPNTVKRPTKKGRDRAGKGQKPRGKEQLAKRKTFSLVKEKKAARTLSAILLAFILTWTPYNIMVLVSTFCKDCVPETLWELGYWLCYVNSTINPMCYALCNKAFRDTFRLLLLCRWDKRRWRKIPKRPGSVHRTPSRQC
# Assay: Effect on ACh binding: ACh inhibition of 3H-NMS binding (indirect assay) on CHO cell membranes
# Conditions: tested at 3 μg/ml; 0.15 nM 3H-NMS, 30 μM ACh, 0.2 mM GTP, pH 7.4, 30° C., two hours
# Source text: The compounds of the present invention may be assayed for allosteric activity at m1 muscarinic receptors as described below, although the assays we describe are not necessarily exhaustive, and other assays may be employed, as desired, to establish allosterism.
# A suitable cell line is CHO (Chinese Hamster Ovary), which are readily engineered to express only one receptor sub-type.
# To obtain the large amount of cell membranes required, plates of 530 cm^2 culture area were used. CHO cells which express m1, m2, m3 and m4 receptors were grown separately in MEM alpha medium containing 10% newborn calf serum and antibiotics. When cells reached confluence, they were washed twice with 10 ml of 20 mM HEPES containing 10 mM EDTA (pH 7.4), scraped into the same buffer and homogenized using a Polytron (trademark) homogenizer (setting 5-6 for 5 sec×2). Membrane pellets were obtained by centrifugation (40000×g, 10 min, 4° C.) and resuspended in 20 mM HEPES-0.1 mM EDTA (pH 7.4). Centrifugation and resuspension were repeated twice to wash the cell membranes. After measurement of membrane protein, the membranes (1 or 2 mg protein/ml) were stored at -70° C.
# While the direct assay measures ACh (=acetylcholine) binding only to the high affinity state, the indirect assay measures effects only at the low affinity state. This is achieved by including 0.2 mM GTP in the assay. In this assay a fixed concentration of ^3 H-NMS (roughly the Kd value) is incubated in the absence and presence of a fixed concentration of ACh (at about the IC50 value) and the effects of three concentrations of test agent are measured, again in the absence and presence of ACh.
# Calculating the effects on ^3 H-NMS binding alone is as follows: binding in the presence of the agent is expressed as a percentage of binding in its absence and, if the effect is inhibitory, an IC50 is estimated graphically. The assay also contains a single high concentration of ^3 H-NMS (4 nM, about 30 times the Kd) which provides an estimate of Bmax (i.e. maximum binding).
# Expressing the effect on cold ACh binding will be explained with reference to FIGS. 1a, b and c. These figures show theoretical data and the effects of the transformations described below. In FIGS. 1a and 1b ^3 H-NMS and cold ACh are present at their Kd concentrations; in FIG. 1a the agent has a negative allosteric effect on ^3 H-NMS, while in FIG. 1b it has a positive allosteric effect on ^3 H-NMS. The left panels show the amount of ^3 H-NMS specifically bound in the assay. If the affinity of ACh is reduced by the test agent, as shown in the top panels of FIGS. 1a and 1b, the inhibition by ACh will decrease, but the counts recovered will also depend on the effect of the agent on ^3 H-NMS binding alone. To calculate the effect on ACh binding the inhibitory effect of ACh is first calculated as a percent of its own control in the absence of ACh. Next it is assumed that fractional inhibition is the same as tractional occupancy, and inhibition in the presence of agent is expressed as a percentage of inhibition in the absence of agent. The effects of these transformations are shown in the centre panels. Expressing inhibition by ACh in the presence of agent as a percentage of inhibition in the absence of agent allows the effect of the agent on cold ACh binding to be seen on the same scale as the effect on ^3 H-NMS and ^3 H-ACh binding and is generally preferred.
# If the concentration of ^3 H-NMS used in the indirect assay is around the Kd value or less, the transformation described above provides a qualitative and semi-quantitative measure of the agent's effect. If a higher concentration of ^3 H-NMS is used, or if the agent has a positive allosteric effect on ^3 H-NMS, then the results of this transformation may be misleading. […] It is assumed that ACh binds to a single affinity state i.e. that its inhibition curve has a slope of 1, and so an IC50 is calculated from the percentage inhibition of control binding. […]
row,SMILES,Effect on ACh Binding
1,"CC(C)Sc1c(CC(=O)O)cc(C(C)C)c2c3ccccc3n(Cc3ccccc3)c12 [Example 235, (9-Benzyl-4-isopropyl-1-isopropylthiocarbazol-2-yl)acetic Acid]",2.82
2,"CSc1c(OCC(=O)O)ccc2c3ccccc3n(Cc3ccccc3)c12 [Example 46, (9-Benzyl-1-methylthiocarbazol-2-yloxy)acetic acid]",2.21
3,"Cc1c(CCC(=O)O)ccc2c3ccccc3n(Cc3ccccc3)c12 [Example 37, 3-(9-Benzyl-1-methylcarbazol-2-yl)propionic acid]",2.09
4,"c1ccc(Cn2c3c(c4ccccc42)CCC(Cc2nnn[nH]2)S3)cc1 (stereo not shown) [Example 84, 5-(9-Benzyl-2,3,4,9-tetrahydrothiopyrano[2,3-b]indol-2-yl)methyltetrazole]",3.30
5,"CSc1c(CC(=O)O)cc(C)c2c3ccccc3n(CCc3ccccc3)c12 [Example 212, [4-Methyl-1-methylthio-9-(2-phenethyl)carbazol-2-yl]acetic Acid]",4.93
6,"CSc1c(CC(=O)O)cc(C)c2c3ccccc3n(CCCc3ccccc3)c12 [Example 214, [4-Methyl-1-methylthio-9-(3-phenylpropyl)carbazol-2-yl]acetic Acid]",4.34
7,"O=C(O)CC1CCc2c(n(Cc3ccccc3)c3ccccc23)S1 (stereo not shown) [Example 83, 2-(9-Benzyl-2,3,4,9-tetrahydrothiopyrano[2,3-b]indol-2-yl) acetic acid]",2.08
8,"O=C(O)CC1CCc2[nH]c3ccccc3c2C1 (stereo not shown) [Example 61, (1,2,3,4-Tetrahydrocarbazol-3-yl)acetic acid]",2.11
9,"CSc1c(CC(=O)O)cc(C)c2c3ccccc3n(Cc3ccc(F)cc3)c12 [Example 143, [9-(4-Fluorobenzyl)-4-methyl-1-methylthiocarbazol-2-yl]acetic Acid]",5.36
10,"CSc1c(C(Cc2ccccc2)C(=O)O)ccc2c3ccccc3n(Cc3ccccc3)c12 (stereo not shown) [Example 17, 2-(9-Benzyl-1-methylthiocarbazol-2-yl)-3-phenylpropionic acid]",2.50
11,"CSc1c(CC(=O)OC(C)(C)C)ccc2c3ccccc3n(Cc3ccc(F)cc3)c12 [Example 8, tert-Butyl [9-(4-fluorobenzyl)-1-methylthiocarbazol-2-yl]acetate]",3.46
12,"CCCc1cc(CC(=O)O)c(SC)c2c1c1ccccc1n2Cc1ccccc1 [Example 116, (9-Benzyl-1-methylthio-4-propylcarbazol-2-yl)acetic Acid]",3.99
13,"Cc1cc(CC(=O)O)c(S(C)(=O)=O)c2c1c1ccccc1n2Cc1ccccc1 [Example 202, (9-Benzyl-1-methylsulfonyl-4-methylcarbazol-2-yl)acetic Acid]",2.66
14,"CSc1c(CC(=O)O)cc(C)c2c3ccccc3n(Cc3ccc(Cl)c(Cl)c3)c12 [Example 149, [9-(3,4-Dichlorobenzyl)-4-methyl-1-methylthiocarbazol-2-yl]acetic Acid]",6.49
15,"CSc1c(CC(=O)O)cc(C(C)C)c2c3ccccc3n(Cc3ccccc3)c12 [Example 190, (9-Benzyl-4-isopropyl-1-methylthiocarbazol-2-yl)acetic Acid]",4.78
16,"CSc1c(CC(=O)O)cc(C)c2c3ccccc3n(Cc3ccccc3)c12 [Example 14, (9-Benzyl-4-methyl-1-methylthiocarbazol-2-yl)acetic acid]",3.89

row,SMILES,Effect on ACh Binding
1,"CSc1c(CC(=O)O)cc(C)c2c3ccccc3n(Cc3cccc(Cl)c3)c12 [Example 145, [9-(3-Chlorobenzyl)-4-methyl-1-methylthiocarbazol-2-yl]acetic Acid]",5.27
2,"CSc1c(Cc2nnn[nH]2)ccc2c3ccccc3n(Cc3ccccc3)c12 [Example 77, 5-[(9-Benzyl-1-methylthiocarbazol)-2-ylmethyl]-1H-tetrazole]",3.69
3,"Cc1cc(CC(=O)O)c(OCc2ccccc2)c2c1c1ccccc1n2Cc1ccccc1 [Example 134, (9-Benzyl-1-benzyloxy-4-methylcarbazol-2-yl)acetic Acid]",3.40
4,"CSc1c(CC(=O)O)cc(C(F)(F)F)c2c3ccccc3n(Cc3ccccc3)c12 [Example 231, (9-Benzyl-1-methylthio-4-trifluoromethyl carbazol-2-yl)acetic Acid]",3.78
5,"CSc1c(Cc2nnn[nH]2)cc(C)c2c3ccccc3n(Cc3ccccc3)c12 [Example 97, 5-[(9-Benzyl-4-methyl-1-methylthiocarbazol)-2-yl-methyl]-1H-tetrazole]",4.97
6,"Cc1cc(CC(=O)O)c([S+](C)[O-])c2c1c1ccccc1n2Cc1ccccc1 (stereo not shown) [Example 200, (9-Benzyl-1-methylsulfinyl-4-methylcarbazol-2-yl)acetic Acid]",3.59
7,"CSc1c(C(Cc2ccccc2)C(=O)O)cc(C)c2c1[nH]c1ccccc12 (stereo not shown) [Example 15, 2-(4-Methyl-1-methylthiocarbazol-2-yl)-3-phenylpropionic acid]",2.42
8,"COc1ccc2c(c1)c1c(C)cc(CC(=O)O)c(SC)c1n2Cc1ccccc1 [Example 182, (9-Benzyl-6-methoxy-4-methyl-1-methylthiocarbazol-2-yl)acetic Acid]",2.57
9,"CCCSc1c(CC(=O)O)cc(C)c2c3ccccc3n(Cc3ccccc3)c12 [Example 217, (9-Benzyl-4-methyl-1-n-propylthiocarbazol-2-yl)acetic Acid]",3.99
10,"CCCc1cc(CC(=O)O)c(SC)c2c1c1ccccc1n2Cc1ccc([N+](=O)[O-])cc1 [Example 176, [1-Methylthio-9-(4-nitrobenzyl)-4-propylcarbazol-2-yl]acetic Acid]",2.08
11,"O=C(O)Cc1cccc2c1ccn2Cc1ccccc1 [Example 91, (1-Benzylindol-4-yl)acetic acid]",2.76
12,"CSc1c(CC(=O)O)cc(C)c2c3ccccc3n(Cc3cccc(OCc4ccccc4)c3)c12 [Example 136, [9-(3-Benzyloxybenzyl)-4-methyl-1-methylthiocarbazol-2-yl]acetic Acid]",2.36
13,"CSc1c(CC(=O)O)ccc2c1c1ccccc1n2Cc1ccccc1 [Example 233, (9-Benzyl-4-methylthiocarbazol-3-yl)acetic Acid]",2.26
14,"CSc1c(C(Cc2ccc([N+](=O)[O-])cc2)C(=O)O)ccc2c3ccccc3n(Cc3ccc([N+](=O)[O-])cc3)c12 (stereo not shown) [Example 23, 2-[9-(4-Nitrobenzyl)-1-methylthiocarbazol-2-yl]-3-(4-nitrophenyl)propionic acid]",2.72
15,"Cc1cc(CC(=O)O)c(SC(C)C)c2c1c1ccccc1n2Cc1ccccc1 [Example 218, (9-Benzyl-4-methyl-1-i-propylthiocarbazol-2-yl)acetic Acid]",4.91
